Test results: US4511504A, “Carboxyalkyl peptide derivatives” (G.D. Searle & Co., priority 1983, dated 1985)

Target: T1, Human Rheumatoid Synovial Collagenase (Homo sapiens, UniProt P03956)
T1 construct: Human Rheumatoid Synovial Collagenase; from tissue; host or cells: human rheumatoid synovium (from the name only; the preparation is not described)
T1 sequence (P03956 100-469): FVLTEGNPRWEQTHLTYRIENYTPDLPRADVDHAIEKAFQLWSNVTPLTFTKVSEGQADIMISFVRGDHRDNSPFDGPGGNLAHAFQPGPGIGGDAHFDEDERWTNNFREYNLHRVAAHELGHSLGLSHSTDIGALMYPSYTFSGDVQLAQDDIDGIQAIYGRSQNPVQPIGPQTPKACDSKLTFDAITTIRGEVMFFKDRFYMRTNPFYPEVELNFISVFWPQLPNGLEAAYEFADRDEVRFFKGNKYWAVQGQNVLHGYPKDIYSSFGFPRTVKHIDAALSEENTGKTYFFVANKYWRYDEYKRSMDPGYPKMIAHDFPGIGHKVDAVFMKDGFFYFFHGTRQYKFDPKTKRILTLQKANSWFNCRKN
Assay: Collagenase inhibition, procedure of Cawston and Barrett (acetyl 14C collagen hydrolysis)
Format: biochemical
Conditions: inhibitor concentration effecting 50% inhibition; 37° C., 16 hours, native acetyl 14C collagen, Tris HCl-CaCl2 pH 7.6
Experimental: This was determined following the procedure of Cawston and Barrett, Anal. Biochem., 99, 340-345 (1979) whereby the 1 mM of the inhibitor being tested or dilutions thereof are incubated at 37° C. for 16 hours with native collagen and collagenase (buffered with Tris HCl--CaCl2; pH 7.6). The collagen is acetyl ^14 C collagen. The samples are centrifuged to sediment undigested collagen and an aliquot of the radiactive supernatant removed for assay on a scintillation counter as a measure of hydrolysis. The collagenase activity in the presence of 1 mM inhibitor, or a dilution thereof is compared to activity in a control devoid of inhibitor and the results reported as that inhibitor concentration effecting 50% inhibition of the collagenase.

CCCCNC(=O)[C@H](C)NC(=O)[C@H](CC(C)(C)C)N[C@H](C)C(=O)O [Example 23, N-[2-(S)-N-(1-(R)-Carboxyethyl)amino-4,4-dimethylpentanoyl]-L-alanine N-Butylamide]
IC50: 25 µM
